According to patent publication US20020111336A1, “Topical composition” (priority 2000, published 2002):

Assay: Storage stability of the gel formulation containing calcipotriol and betamethasone dipropionate
Format: physicochemical
Details: gel formulation of Example 1; for BDP Kvant.: content of BDP; for Calcipotri. Kvant.: content of calcipotriol, in µg/g
Method: To produce 1 kg of gel formulation, 30 g of hydrogenated castor oil was melted together with 749 g of heptamethylnonane at 85-90° C. and cooled with homogenisation to about 60° C. The mixture was then cooled to 25-30° C. with stirring. 643 mg of betamethasone dipropionate was suspended in 50 g of heptamethylnonane and added to the homogenised gel base. 52.2 mg of calcipotriol hydrate or 50 mg of calcipotriol was dissolved in 170 g polyoxypropylene-15-stearyl ether and added to the mixture of the other ingredients, and the formulation was homogenised to ensure a homogenous distribution of the active components. The resulting gel formulation was stable when stored at 40° C. for 3 months, indicating a shelf life of at least 2 years at room temperature.

Row | % FOS (40° C. 1 month) [%] | BDP Kvant. (40° C. 1 month) [mg/g] | % FOS (40° C. 3 months) [%] | BDP Kvant. (40° C. 3 months) [mg/g] | % FOS (Start 5°C./1 month) [%] | % Epi (40° C. 1 month) [%] | Calcipotri. Kvant. (40° C. 1 month) | % Epi (40° C. 3 months) [%] | Calcipotri. Kvant. (40° C. 3 months) | % Epi (Start 5°C./1 month) [%] | SMILES
1 | 0.91 | 0.634 | 1.02 | 0.642 | 0.23 |  |  |  |  |  | CCC(=O)OCC(=O)[C@@]1(OC(=O)CC)[C@@H](C)C[C@H]2[C@@H]3CCC4=CC(=O)C=C[C@]4(C)[C@@]3(F)[C@@H](O)C[C@@]21C [BDP, betamethasone dipropionate]
2 | 1.52 |  | 1.33 |  | 1.59 | 0.66 | 50.16 | 0.8 | 50.0 | 0.62 | C=C1/C(=C\C=C2/CCC[C@]3(C)[C@@H]([C@H](C)/C=C/[C@@H](O)C4CC4)CC[C@@H]23)C[C@@H](O)C[C@@H]1O [Calcipotri., calcipotriol]
